Test results from patent US7897591B2, “Method of treating fatty liver disease” (priority 2005, dated 2011).

Key:
SREBP-1c = test: Western blot of liver SREBP-1c; assay type: in vivo, mouse; details: across the treatment groups
Description: (§1) Control animals (n=5) received normal chow and water ad libitum. All animals in the experimental groups were fed a fat-free, high carbohydrate liquid diet (HCD) ad libitum placed in one bottle per cage as previously described (3, 62). No additional sources of nutrition or hydration were provided. The HCD liquid solution contained 20% dextrose, a commercial mixture of 2% essential and nonessential amino acids (TrophAmine, B. Braun Medical, Irvine, Calif.), 2 ml trace elements (Trace Elements Injection 4, USP—Pediatric, American Regent Shirley, N.Y.), and 5 ml multivitamins (M.V.I. Pediatric™, Mayne Pharma, Paramus, N.J.). Each liter of HCD contained 30 meq sodium, 20 meq potassium chloride, 15 meq calcium, 10 meq magnesium, and 10 mM phosphate. The bottles were replaced daily with fresh HCD solution. HCD animals (n=5) received HCD only and no additional treatment for 19 days. The HCD+MAR animals (n=15) additionally received 100 mg/kg of Marimastat™ in 0.45% methylcellulose (Sigma-Aldrich Corporation, St. Louis, Mo.) vehicle twice daily via orogastric gavage. The animals were individually weighed every third day and at sacrifice. […] The assay was read at 595 nm and analyzed with Softmax® PRO Software (Molecular Devices Corporation, Sunnyvale, Calif.). 30 ug of protein per sample were analyzed by SDS-PAGE. […]

C57BL/6 mice = test: MR spectroscopy of percentage liver fat content in HCD mouse model; assay type: in vivo; details: HCD+MAR mice, 100 mg/kg twice daily orogastric gavage, 19 days; mean±SEM; P<0.05 vs HCD-only (24.1±1.7%)
Description: Experiments were performed on 5-6 week-old C57BL/6 mice (Jackson Laboratories, Bar Harbor, Me.). The animals, in groups of five, were housed in a barrier room and were acclimated to their environment for at least 72 hours prior to the initiation of each experiment. Animal protocols complied with the NIH Animal Research Advisory Committee guidelines and were approved by the Children's Hospital Boston Animal Care and Use Committee. Control animals (n=5) received normal chow and water ad libitum. All animals in the experimental groups were fed a fat-free, high carbohydrate liquid diet (HCD) ad libitum placed in one bottle per cage as previously described (3, 62). No additional sources of nutrition or hydration were provided. […] Three 2 mm thick slices were imaged for each sample and the saturation recovery curves were generated from signal intensities measured in identically sized regions of interest within a given slice. […] Spectra were obtained following Fourier transformation and phasing, and percent fat content was determined relative to water by numerical integration of the areas under the lipid and water peaks by an independent blinded reviewer.

PPAR-α = test: Western blot densitometry of liver PPAR-α; assay type: in vivo, mouse; details: HCD+MAR mice; nuclear + cytosolic summed; mean±SEM; P<0.02 vs HCD-only (11.5±4.4)
Description: as §1

## CNC(=O)[C@@H](NC(=O)[C@H](CC(C)C)[C@H](O)C(=O)NO)C(C)(C)C [Marimastat]
SREBP-1c
  SREBP-1c protein level: unchanged
C57BL/6 mice
  liver fat content by MR spectroscopy: 8.1±1.2%
PPAR-α
  PPAR-α level, Western blot densitometry: 151.7±3.4
